From US20230374043A1, “Hexadeca Ammonium-Modified Phthalocyanine and Preparation Method and Use Thereof as Photodynamic Drug” (Fuzhou University, priority 2020, published 2023)
Like-named read-outs stand apart in the source and are kept apart here.

Key:
[1] = ultraviolet-visible absorption spectrum of zinc phthalocyanine complexes in water; assay type: physicochemical; settings: for maximum absorption wavelength: in water; for state in water judged from Q band (aggregation / monomer): 4 μM, no surfactant
Excerpt: It was seen from the figure that the Q bands of the zinc phthalocyanine complexes obtained in Examples 1 to 6 in water each were relatively wide and low, showing different degrees of aggregation; while only the Q bands of the zinc phthalocyanine complexes in Examples 7 and 8 in water were strong and sharp peaks.

Staphylococcus aureus [2] = experiment: dark toxicity and photodynamic antibacterial effect against Staphylococcus aureus (colony count); assay type: cell-based; settings: for increase compared with the IC90 value of MB: under illumination; for IC90: 4 h incubation, red light >610 nm, 15 mW cm^-2, 30 min, read-out: IC90 value (concentration required to kill 90% of Staphylococcus aureus); for photodynamic antibacterial activity: after illumination with red light; for dark toxicity on Staphylococcus aureus: without illumination, 4 h in PBS, colony count
Method: (§1) The dark toxicity and photodynamic antibacterial effect of the 2,3-bis[3-(trimethylammonium)phenoxy]zinc phthalocyanine diiodate of Example 2, the 1,2,3,4-bis[3-(trimethylammonium)phenoxy]zinc phthalocyanine tetraiodate of Example 4, the octa-β-[3-(trimethylammonium)phenoxy]zinc phthalocyanine octaiodate of Example 6, and the hexadeca-[3-(trimethylammonium)phenoxy]zinc phthalocyanine hexadecaiodate of Example 8 against Staphylococcus aureus were tested.
1 mM of the photosensitive medicament was diluted into PBS to prepare a PBS solutions containing zinc phthalocyanine complexes at different concentrations, and then Staphylococcus aureus was cultured in the PBS solutions containing zinc phthalocyanine complexes at different concentrations for 4 h. Illumination experiment group: the cells were irradiated with red light for 30 min at a power of irradiated light at 15 mW cm^−2 using red light with a wavelength greater than 610 nm as an excitation light source; non-illumination control group: the cells were placed in the dark for 30 min. A treated cell suspension was inoculated on a surface of a Luria-Bertani medium, cultured for 48 h, and the dark toxicity and photodynamic activity of the photosensitive medicament to Staphylococcus aureus were examined by the number of colonies.
(§2) The red light with a wavelength greater than 610 nm was provided by a 500 W halogen lamp connected to an insulated water tank and an optical filter greater than 610 nm.

liver cancer H22 = experiment: small animal live imaging in tumor-bearing (liver cancer H22) mouse model; assay type: in vivo; settings: tail vein; for time at which tumor fluorescence reached its peak: 0.8 mol·Kg^-1, imaging within 24 h
Method: The 2,3-bis[3-(trimethylammonium)phenoxy]zinc phthalocyanine diiodate of Example 2, the 1,2,3,4-bis[3-(trimethylammonium)phenoxy]zinc phthalocyanine tetraiodate of Example 4, the octa-β-[3-(trimethylammonium)phenoxy]zinc phthalocyanine octaiodate of Example 6, and the hexadeca-[3-(trimethylammonium)phenoxy]zinc phthalocyanine hexadecaiodate of Example 8 each were dissolved in a physiological saline and diluted into solutions to be tested. A tumor-bearing (liver cancer H22) mouse model was established according to a method in the literature (ACS Applied Materials & Interfaces, 2019, 11(40), 36435-36443), 100 μL of each phthalocyanine solution (at an administration dosage: […]) was injected through the tail vein, and small animal live imaging was conducted within the next 24 h.

[3] = test system: human liver cancer cells HepG2; experiment: dark toxicity and photodynamic anticancer effect on HepG2 cells (MTT); assay type: cell-based; settings: for photodynamic anticancer activity: HepG2, after illumination with red light; for photodynamic activity relative to tetrakis-α-(2,4,6-tris(N,N,N-trimethylammonium methyl)-phenoxy)zinc phthalocyanine dodecaiodate: HepG2, under illumination; for dark toxicity on HepG2 cells: without illumination, 2 h incubation
Method: as §1, with “anticancer” for “antibacterial”, “2,3-bis[3-(trimethyl ammonium)phenoxy]zinc” for “2,3-bis[3-(trimethylammonium)phenoxy]zinc”, “on human liver cancer cells HepG2” for “against Staphylococcus aureus”, “tested, respectively.” for “tested.”
The main steps were as follows: the above photosensitive medicaments were separately dissolved in water to obtain 1 mM photosensitizers, and then diluted into a cell medium to prepare cell mediums containing zinc phthalocyanine complexes at different concentrations. The human liver cancer cells HepG2 were cultured in the mediums containing zinc phthalocyanine complexes at different concentrations for 2 h; the medium was discarded; and after washing with PBS, the cells were added into a new medium (without zinc phthalocyanine complexes). Illumination experiment group: the cells were irradiated with red light for 30 min at a power of irradiated light at 15 mW cm^−2 using red light with a wavelength greater than 600 nm as an excitation light source; non-illumination control group: the cells were placed in the dark for 30 min. After illumination or non-illumination, the cell viability was examined by MTT.
as §2

Staphylococcus aureus [4] = settings: comparison value, source not stated, read-out: IC90 value of the commonly used photosensitizer; cited from earlier work
subcutaneous tumors = experiment: photodynamic tumor inhibition in KM mice with subcutaneous tumors; assay type: in vivo
Method: The zinc phthalocyanine complex obtained in Example 8 was dissolved in physiological saline and diluted to form a solution to be tested. […] with subcutaneous tumors were taken, and each drug was divided into 4 groups (a medication+laser group, a medication group, a normal saline group, and a normal saline+laser group), with 5 mice in each group; when the tumor grew to (60-100) mm^3, 100 μL of a phthalocyanine aqueous solution was injected intravenously at a dosage of […]. After 1 h, the mice were anesthetized and irradiated with laser of (685±5) nm (at a light intensity of 9.4 mW cm^−2 for 10 min). The mice were continued to be fed, and observed every other day; a weight of the mice was measured and a long diameter and a short diameter of the mice were measured with a vernier caliper for a total of 14 d.

Staphylococcus aureus [5] = experiment: photodynamic antibacterial effect on mice infected with Staphylococcus aureus; assay type: in vivo; settings: 15 d
Method: A photodynamic antibacterial effect of the hexadeca-[3-(trimethylammonium)phenoxy]zinc phthalocyanine hexadecaiodate of Example 8 was tested on mice infected with Staphylococcus aureus.
0.1 mL of a PBS solution containing Staphylococcus aureus colonies was inoculated subcutaneously on the right abdomen of depilated normal-grade KM female mice (weighed about 20 g), at a cell concentration of (1-2)×10^6 CFU·mL^−1, and the mice could be treated two days after inoculation. 4 groups were set up, namely a hexadeca-[3-(trimethylammonium)phenoxy]zinc phthalocyanine hexadecaiodate+laser group, a hexadeca-[3-(trimethylammonium)phenoxy]zinc phthalocyanine hexadecaiodate group, a blank+laser group, and a blank group. Before treatment, a sterile absorbent pad of a wound dressing was soaked with 100 μL of the phthalocyanine aqueous solution (containing 1% CEL), applied to the wound of the treatment group, and fixed with a zinc oxide tape. The wound dressing was applied for 2 h each time, and then the dressing was changed once, and then continued for another 2 h. The blank group was given normal saline for applying. After 4 h, the illumination group was treated with laser at (685±5) nm (with a light intensity of 9.4 mW·cm^−2 for 5 min). The mice were observed and recorded for 15 d. After 15 d, the tissues at the infected site were excised, ground and extracted with 1 mL of a sterilized PBS to obtain a bacterial suspension, diluted by 50 times, spread on the surface of the corresponding Luria-Bertani medium, with parallelly 3 plates for each concentration, cultured in a 37° C. incubator, and then observed and counted after 24 h.

[6] = Homo sapiens, HepG2, read-out: half maximal inhibitory concentration (IC50)

Molecule | maximum absorption wavelength [1] [nm] | state in water judged from Q band (aggregation / monomer) [1] | increase compared with the IC90 value of MB (Staphylococcus aureus [2]; Staphylococcus aureus) [times] | IC90 (Staphylococcus aureus [2]; Staphylococcus aureus) [nM] | photodynamic antibacterial activity (Staphylococcus aureus [2]) | dark toxicity on Staphylococcus aureus (Staphylococcus aureus [2]) | enrichment in organs (liver cancer H22; 0.8 mol·Kg^-1) | metabolism in vivo (liver cancer H22; 0.8 mol·Kg^-1) | time at which tumor fluorescence reached its peak (liver cancer H22) | photodynamic anticancer activity [3] | photodynamic activity relative to tetrakis-α-(2,4,6-tris(N,N,N-trimethylammonium methyl)-phenoxy)zinc phthalocyanine dodecaiodate [3] [times] | IC50 [3, 6] [nM] | dark toxicity on HepG2 cells ([3]; MTT) | accumulation / targeting ability in tumor sites (liver cancer H22; 0.8 mol·Kg^-1) | also measured
1,2,3,4,8,9,10,11,15,16,17,18,22,23,24,25-hexadeca[3-(dimethylamino)phenoxy]zinc phthalocyanine complex [Example 7] | 727 | monomers |  |  |  |  |  |  |  |  |  |  |  |  | 
C[N+](C)(C)c1cccc(Oc2cc3c(cc2Oc2cccc([N+](C)(C)C)c2)C2=[N+]4C3=Nc3c5ccccc5c5[n]3[Zn@]43[n]4c(c6ccccc6c4=N2)=NC2=[N+]3C(=N5)c3ccccc32)c1 [Example 2, 2,3-bis[3-(trimethylammonium)phenoxy]zinc phthalocyanine diiodate] |  |  | 69 | 85 | high photodynamic antibacterial activity | no killing and growth inhibitory effect | enriched to varying degrees in organs such as liver and spleen | low metabolism | 12 h | high photodynamic anticancer activity | 1.23 | 170 | no killing and growth inhibitory effect |  | 
C[N+](C)(C)c1cccc(Oc2c(Oc3cccc([N+](C)(C)C)c3)c(Oc3cccc([N+](C)(C)C)c3)c3c(c2Oc2cccc([N+](C)(C)C)c2)C2=Nc4c5ccccc5c5[n]4[Zn@]46[n]7c(c8ccccc8c7=NC3=[N+]24)=NC2=[N+]6C(=N5)c3ccccc32)c1 [Example 4] |  |  | 80 | 74 | high photodynamic antibacterial activity | no killing and growth inhibitory effect |  |  |  | high photodynamic anticancer activity | 1.00 | 210 | no killing and growth inhibitory effect | poor accumulation ability in tumor sites | 
C[N+](C)(C)c1cccc(Oc2cc3c(cc2Oc2cccc([N+](C)(C)C)c2)C2=[N+]4C3=Nc3c5cc(Oc6cccc([N+](C)(C)C)c6)c(Oc6cccc([N+](C)(C)C)c6)cc5c5[n]3[Zn]43[n]4c(c6cc(Oc7cccc([N+](C)(C)C)c7)c(Oc7cccc([N+](C)(C)C)c7)cc6c4=NC4=[N+]3C(=N5)c3cc(Oc5cccc([N+](C)(C)C)c5)c(Oc5cccc([N+](C)(C)C)c5)cc34)=N2)c1 [Example 6, 2,3,9,10,16,17,23,24-octa[3-(trimethylammonium)phenoxy]zinc phthalocyanine octaiodate] |  |  | 83 | 71 |  | no killing and growth inhibitory effect | enriched to varying degrees in organs such as liver and spleen | low metabolism | about 12 h |  | 1.50 | 60 | no killing and growth inhibitory effect |  | 
CN(C)c1ccc2nc3ccc(=[N+](C)C)cc-3sc2c1 [MB] |  |  |  |  |  |  |  |  |  |  |  |  |  |  | IC90 (Staphylococcus aureus [4]): 5900 nM
hexadeca-[3-(dimethylammonium)phenoxy]zinc phthalocyanine hexadecaiodate [Example 8] | 714 | monomers | 86 |  |  | no killing and growth inhibitory effect |  | rapid metabolism in vivo | 2 h |  | 2.25 |  | no killing and growth inhibitory effect | excellent targeting ability | toxicity to mice (subcutaneous tumors; i.v. 0.8 mol·Kg^-1, 14 d): no obvious toxicity; tumor inhibition rate (subcutaneous tumors; medication+laser group, i.v. 0.8 mol·Kg^-1, laser (685±5) nm 9.4 mW cm^-2 10 min after 1 h, 14 d): 98.7%; body weight of the mice in the treatment group (subcutaneous tumors; within 14 d): tendency to increase; IC90 (Staphylococcus aureus [2]): 69 nM; time until basically scavenged by the body's metabolism (liver cancer H22; 0.8 mol·Kg^-1): about 6 h; IC50 ([3]; HepG2, 2 h incubation, red light >600 nm, 15 mW cm^-2, 30 min, MTT, read-out: half maximal inhibitory concentration (IC50)): 40 nM; appearance of infected skin site (Staphylococcus aureus [5]; +laser group): crusted; inhibition rate of Staphylococcus aureus colonies from excised tissue (Staphylococcus aureus [5]; +laser group, topical dressing 2x2 h (1% CEL), laser (685±5) nm 9.4 mW·cm^-2 5 min): 98%; appearance of infected skin site (Staphylococcus aureus [5]; compound without laser): obvious lumps
